Reference: patent US20210308117A1, “METHODS OF TREATING VIRAL INFECTIONS USING INHIBITORS OF NUCLEOTIDE SYNTHESIS PATHWAYS” (priority 2020, published 2021)
Read-outs that look alike come from different tables or passages of the source.

What was measured:
SARS-CoV-2 = assay: microbe, parasite or virus in culture; assay type: cell-based
H1-HeLa cells [1] = settings: human, 3 days
[2] = cited from earlier work
RNA virus = assay: Daily dosing of brequinar in a subject infected with an RNA virus; assay type: in vivo; settings: once per day for five consecutive days; first peak in brequinar level
Description: The mechanism by which administration of a DHODH inhibitor according to a daily dosing regimen inhibits viral replication is illustrated below. […] Throughout the course of the dosing regimen, levels of intracellular pyrimidines, such as uridine, and viral replication are measured.

[3] = human, in vivo
clinical = settings: human, in vivo, po
Vero76 (monkey kidney) = settings: cited from earlier work
[4] = test system: 16HBE (human bronchial epithelial); settings: cited from earlier work
[5] = test system: HeLa (human cervical tumor); settings: cited from earlier work
Vero (monkey kidney) = settings: cited from earlier work
[6] = test system: HuH7 (human hepatocellular carcinoma); settings: cited from earlier work
[7] = test system: Primary Human Fibroblasts; settings: cited from earlier work
[8] = in vivo, iv; cited from earlier work
H1-HeLa cells [9] = assay: Cytotoxicity XTT assay in H1-HeLa cells; settings: read-out: TC50, 3 days
[10] = Adverse events in subjects receiving brequinar; settings: i.v. once a week
[11] = weekly rapid iv injection; previously treated patients with advanced lung cancer; cited from earlier work
Vero E6 cells = settings: remdesivir co-treated with brequinar
[12] = 1-h i.v. infusion every 3 weeks

In the case of CC(C)C[C@H](NC(=O)OCc1ccccc1)C(=O)N[C@@H](CC1CCNC1=O)C(O)S(=O)(=O)[O-].[Na+] (stereo partly drawn) [GC-376], the “SI50 (Selective Index 50 = CC50/IC50)” value (SARS-CoV-2) is reported as greater than 24.5.

CCOC(=O)/C=C/[C@H](C[C@@H]1CCNC1=O)NC(=O)[C@@H](CC(=O)[C@@H](NC(=O)c1cc(C)on1)C(C)C)Cc1ccc(F)cc1 [Rupintrivir] showed a CC50 (H1-HeLa cells [1]) greater than 0.1 µM.

In the case of Cc1c(-c2ccc(-c3ccccc3F)cc2)nc2ccc(F)cc2c1C(=O)O [brequinar sodium], the “recommended dose for phase II studies, good-risk patients” value [2, 12] is listed as 1,800 mg/m^2, the “recommended dose for phase II studies, poor-risk patients” value [2, 12] is listed as 1,200 mg/m^2 and the “maximum tolerable dose, good-risk patients” value ([2]; i.v. infusion every 3 weeks) is listed as 2,250 mg/m^2. The “maximum tolerable dose, poor-risk patients” value ([2]; i.v. infusion every 3 weeks) was 1,500 mg/m^2.

In the case of Cc1c(-c2ccc(-c3ccccc3F)cc2)nc2ccc(F)cc2c1C(=O)O [brequinar, 6-fluoro-2-(2′-fluoro-1,1′ biphenyl-4-yl)-3-methyl-4-quinoline carboxylic acid], the intracellular pyrimidine pool (RNA virus) is reported as “dramatic decrease in the intracellular pyrimidine pool”, the “cumulative effect of repeated doses” value [3] is reported as “No cumulative effective of repeated doses” and the bioavailability (clinical) is reported as greater than 90%. For the same compound, the CC50 (Vero76 (monkey kidney)) was greater than 50 µM, the CC50 [4] was greater than 50 µM and the CC50 [5] was greater than 25 µM. For the same compound, the CC50 (Vero (monkey kidney)) was greater than 50 µM, the CC50 [6] was greater than 25 µM and the CC50 [7] was greater than 50 µM. For the same compound, the “recommended dose for phase II evaluation, good risk patients” value [8] was 250 mg/m^2, the “recommended dose for phase II evaluation, poor risk patients” value [8] was 135 mg/m^2 and the CC50 (H1-HeLa cells [9]) was 0.3 µM. The “Infection: No. of Patients, Max Grade 1” value [10] was 4, the “Infection: No. of Patients, Max Grade 2” value [10] was 3 and the “Infection: No. of Patients, Max Grade 3” value [10] was 0. For the same compound, the “Infection: No. of Patients, Max Grade 4” value [10] was 0.

For NC(=O)c1[nH]nc([C@@H]2O[C@H](CO)[C@@H](O)[C@H]2O)c1O [pyrazofurin, 5-[(2S,3R,4S,5R)-3,4-dihydroxy-5-(hydroxymethyl)oxolan-2-yl]-4-hydroxy-1H-pyrazole-3-carboxamide], the therapeutic value [11] is given as “little therapeutic value as a single agent”.

In the case of CCC(CC)COC(=O)[C@H](C)N[P@](=O)(OC[C@H]1O[C@@](C#N)(c2ccc3c(N)ncnn23)[C@H](O)[C@@H]1O)Oc1ccccc1 [remdesivir], the “fold increase in activity of remdesivir” value (SARS-CoV-2) is reported as greater than 6.8 fold, the “E(Max)” value (SARS-CoV-2; SARS-CoV-2, Vero E6, maximum CPE-protection effect) is reported as 100 and the “cytotoxicity by the co-treatment” value (Vero E6 cells) is reported as “No enhanced cytotoxicity”.

In the case of NC(=O)c1ncn([C@@H]2O[C@H](CO)[C@@H](O)[C@H]2O)n1 [ribavirin], the EC50 (SARS-CoV-2; Severe acute respiratory syndrome coronavirus 2, Vero C1008, SARS-CoV-2, Vero E6, MOI 0.05, read-out: EC50 (50% of the maximum CPE-protection effect of the compound)) is reported as greater than 50 µM.
